Assays:
[1] = system: C57BL/6J mice with SCI; assay: Behavioral tests (Basso Mouse Scale, footprint analysis) after spinal cord contusion; format: in vivo; conditions: vs vehicle
Description: (§1) Mice were anesthetized by intramuscular injection of Zoletil® (50 mg/kg; tiletamine hydrochloride and zolazepam hydrochloride) and Rompun® (12 mg/kg; xylazine hydrochloride) before the surgery. After laminectomy on the T9-T10 vertebral column, the spinal cord was exposed and contused by a 10 g rod with an impact head of 1.2 mm diameter at the height of 6.25 mm above the T10 spinal cord to allow it to drop using an Impactor model-II spinal cord contusion system (RWD6809911) to cause the contusion injury. In the sham group, surgery procedures were identical except for the spinal contusion. After the injury, the wound was quickly sutured using 4.0 silk thread (Unik Taiwan; New Taipei city, Taiwan). The bladders of mice were manually and gently massaged once a day to avoid retention of urine until the reflexive control of micturition was restored. Cefazolin (300 mg/kg) was given for consecutive three days after surgery to prevent infection. Fourteen days after the surgery, mice were sacrificed for analyses.
(§2) In one example for the treatment of J4, which can be used as an ENT1 inhibitor, male C57BL/6J mice (8-12 weeks old) were divided into three groups: the sham group, the SCI+J4 group and the SCI+vehicle group. Please refer to FIG. 1. In the J4 group, mice were pretreated with 10 mg/kg J4 twice a day for three days before the injury. Following the SCI, J4 (10 mg/kg) was administered to mice twice a day for consecutive 14 days. In vehicle group, mice were treated with 5% DMSO, instead of J4, following the same protocol of the J4-treated group. The sham group received the same treatment as the vehicle group. All mice were maintained on a 12 h light/dark schedule and given food and water ad libitum in the Laboratory Animal Center (an AAALAC accredited experimental animal facility) at National Taiwan University. Procedures involving animals were conducted according to the ARRIVE (Animal Research: Reporting In Vivo Experiments) guidelines.
(§3) In another example for the treatment of JMF 1907 (i.e. the compound of formula (III)), male C57BL/6J mice (8-12 weeks old) were divided into three groups: the JMF1907 group, the methylprednisolone (MPSS) group and the vehicle group. Wherein, JMF1907 (10 mg/kg twice daily for 14 days), methylprednisolone (30 mg/kg 10 min after crush, then at 2, 4, and 6 h after crush), or vehicle (0.5% DMSO, twice daily for 14 days) was administered to said mice.
The motor function after SCI was evaluated from day 3 to day 14 after the surgery by locomotor open-field rating scale on the Basso Mouse Scale (BMS).^6 Scoring ranged from 0 for complete paraplegia to 9 for normal function. The footprint analysis was assessed on day 14 after the surgery. The hindlimbs of the mice were dipped in red and black dye for left and right foot, respectively. […]

[2] = system: C57BL/6J mice with SCI; assay: Nissl staining of spinal cord lesion after spinal cord contusion; format: in vivo, mouse; conditions: vs vehicle
Description: as §1
(§4) In one example for the treatment of J4, which can be used as an ENT1 inhibitor, male C57BL/6J mice (8-12 weeks old) were divided into three groups: the sham group, the SCI+J4 group and the SCI+vehicle group. Please refer to FIG. 1. In the J4 group, mice were pretreated with 10 mg/kg J4 twice a day for three days before the injury. […]

[3] = system: C57BL/6J mice with SCI; assay: Immunofluorescence staining of spinal cord perilesional area after spinal cord contusion; format: in vivo, mouse
Description: as §1, §2, §3
After being anesthetized by Zoletil® (50 mg/kg) and Rompun® (12 mg/kg), mice were intracardially perfused with ice-cold normal saline. The spinal cord (T9-T11) was removed and soaked in ice-cold 4% paraformaldehyde. The vertebrae were then placed in cassettes for paraffin embedding. The samples were cut into sagittal section of 4 μm and placed in water bath at 42° C. The section was mounted onto slides and stored at room temperature until analysis. After deparaffinization, tissue retrieval was conducted in sodium citrate buffer (pH=6) at 90° C. and the spinal cord slices were then washed with phosphate-buffered saline (PBS). Sections were incubated in antibody dilution buffer (Roche, Basel, Swiss) at room temperature. The slides were immunostained by the following primary antibodies: chicken anti-neuronal nuclear protein (NeuN) (1:2000; Merck-Millipore, Dramstadt, Germany), rabbit anti-ionized calcium-binding adapter molecule-1 (Iba-1) (1:1000; Abcam, Cambridge, MA, USA), or mouse anti-glial fibrillary acidic protein (Gfap) (1:1000; cell signaling, Danvers, Massachusetts, USA) overnight at 4° C. Corresponding secondary antibodies conjugated with Alexa Fluor 488 or Rhodamine (Jackson Immuno Research Laboratories, West Grove, PA, USA) were applied for the visualization of immunolabelling. After being washed with PBST (Phosphate Buffered Saline with Tween® 20) and PBS, the slices were mounted on a mounting gel (DAPI Fluoromount G; Southern Biotech Birmingham, Alabama, USA). Images were acquired by a Zeiss AXIO Imager M1 microscope (Carl Zeiss, Gottingen, Germany). […]

[4] = system: C57BL/6J mice with SCI; assay: Western blot of spinal cord (T9-T11) after spinal cord contusion; format: in vivo, mouse; conditions: J4 10 mg/kg twice a day
Description: as §1, §2
The protein concentrations of the samples were determined by the Bio-Rad DC Protein Assay Kit (Bio-rad, Hercules, CA, USA). Protein samples (10 μg each) were diluted with loading buffer (200 mM Tris-HCl, 1.43% 2-mercaptoethanol, 0.4% bromophenol blue, and 40% glycerol) and heated at 98° C. The protein samples were then separated with 90 V for 10 minutes, followed by 130 V for 60 minutes on 12% SDS-polyacrylamide gel (for S100a10, c-caspase3 and GAPDH) or 8% SDS-polyacrylamide gel (for C3, NeuN) in running buffer (0.3% Tris base, 1.88% glycine, and 0.1% SDS). After electrophoresis, the gel was transferred onto a nitrocellulose membrane in transfer buffer (0.3% Tris base, 1.88% glycine, and 20% methanol; pH 8.3) with 300 mA for 90 minutes. Nonspecific binding to membrane was blocked by BlockPRO™ 1 Min Protein Free Blocking Buffer (Neihu, Taipei City, Taiwan) at room temperature on shaker at 25 rpm. […] Bound antibodies were detected using Chemiluminescence reagent Plus (PerkinElmer Life Sciences, MA, USA) and Bio-rad ChemiDoc™ XRS+ Systems and Image Lab™ Software to obtain images under appropriate exposure time.

[5] = system: C57BL/6J mice with SCI; assay: RT-qPCR of inflammatory cytokines in spinal cord after spinal cord contusion; format: in vivo, mouse; conditions: J4 10 mg/kg twice a day; perilesional area, 14 days post-injury; vs vehicle
Description: as §1
as §4, with “injury. Following the SCI, J4 (10 mg/kg) was administered to mice twice a day for consecutive 14 days.” for “injury.”
Mice were anesthetized by the inhalation of isoflurane. […] Total RNA isolation, quality check, cDNA synthesis and SYBR green based quantitative real-time PCR assay were performed as described previously.^7 The forward/reverse primer sequences for IL-1β, IL-6, TNF-α, and GAPDH were listed in Table 1. The relative expression of target genes normalized to that of glyceraldehyde 3-phosphate dehydrogenase (GAPDH) was calculated by the comparative Ct (ΔCt) and was expressed as 2−ΔCt. The relative quantity was determined by the formula: 2−ΔΔCt, in which ΔΔCt values were obtained by subtracting the ΔCt values of mice with SCI from the sham controls.

[6] = JMF1907 10 mg/kg twice daily for 14 days
[7] = JMF1907 10 mg/kg twice daily for 14 days, vs vehicle

SMILES: OC[C@H]1O[C@@H](n2cnc3c(NCc4ccc(Br)s4)ncnc32)[C@H](O)[C@@H]1O [J4, N^6-[(5-bromothien-2-yl)methyl]adenosine]
- stride length (footprint analysis) ([1]; J4 10 mg/kg twice a day, 3 days before and 14 days after SCI, 14 DPI): improved
- BMS score ([1]; J4 10 mg/kg twice a day, intraperitoneal, 3 days before injury and 14 days after SCI): improved
- loss of spinal cord tissue (lesion volume, Nissl staining) ([2]; J4 10 mg/kg twice a day, 14 days post-injury): significantly reduced
- NeuN-positive cells in the perilesional area (immunostaining) ([3]; J4 10 mg/kg twice a day, 14 DPI, vs vehicle): more
- intensity of Iba-1-positive cells ([3]; J4 10 mg/kg twice a day, perilesional area, 14 DPI, vs vehicle-treated group): lower
- average fluorescence intensity of Gfap ([3]; J4 10 mg/kg twice a day, perilesional area, 14 days post-injury, vs vehicle group): remarkably decreased
- protein level of c-caspase3 ([4]; 14 DPI, vs vehicle): decreased
- protein level of NeuN ([4]; 14 DPI, vs vehicle group): higher
- TGF-β protein ([4]; vs vehicle): significantly increased
- protein level of C3 (A1 astrocyte marker) ([4]; vs vehicle): significantly decreased
- protein level of S100a10 (A2 astrocyte marker) ([4]; vs vehicle): increased
- expression of IL-6 (mRNA) [5]: trend of reduction
- expression of IL-10 (mRNA) [5]: trend of reduction
- expression of TNF-α (mRNA) [5]: significantly reduced

SMILES: OC[C@H]1O[C@@H](n2cnc3c(NCCc4c[nH]c5ccccc45)ncnc32)[C@@H](O)C1O (stereo partly drawn) [JMF1907]
- motor function (BMS score) [1, 6]: significantly improve
- stride length [1, 6]: significantly improve
- lesion of the SCI (Nissl staining) [2, 6]: significantly reduce
- lesion of the SCI (immunofluorescence analysis, Pdgf§ expression) [3, 7]: significantly reduce
- level of CD68 (marker for microglia) [3, 7]: significantly reduced
- level of Gfap (marker for reactive astrocytes) [3, 7]: significantly reduced
- level of Iba-1 (marker for microglia) [3, 7]: significantly reduced
